Legend:
[1] = test system: ARDS; test: NO inhalation in nine additional ARDS patients; type: in vivo, human
Text: Subsequent subjects. Nine additional patients have been treated for ARDS by NO inhalation, for periods up to 28 days.

[2] = test system: pulmonary hypertension in ARDS; test: Inhaled NO versus i.v. prostacyclin in adult with ARDS (first subject); type: in vivo, human; settings: for QVA /QT: sulphur hexafluoride, from 38%
Experimental: First subject. The patient had suffered for three weeks from adult respiratory distress syndrome (ARDS) due to aspiration pneumonia. There was diffuse pulmonary edema and a large QVA /QT (30%). After 21 days of venovenous extracorporeal membrane oxygenator support (3 liters/min blood flow), the mean PAP was 55 mm Hg.
The short term effects of inhaled nitric oxide were compared with those of i.v. prostacyclin (PGI2; 5ng/kg/min). Mean pulmonary arterial pressure (PAP), right ventricular ejection fraction (RVEF) and gas exchange variables were evaluated. RVEF was assessed by thermodilution, and gas exchange alterations were analyzed using the multiple inert gas elimination technique (MIGET). MIGET and RVEF date were obtained on two different occasions. Ventilator settings were tidal volume 6 ml/kg, respiratory rate 14/min, Fi O2 0.4-0.48 and 5 cm H2 O of PEEP (positive end expiratory pressure).

[3] = test system: U46619-induced pulmonary vasoconstriction; test: Inhaled NO in lambs with U46619-induced pulmonary vasoconstriction; type: in vivo, Suffolk lambs
Text: Eight Suffolk lambs weighing 25-35 kg underwent a sterile thoracotomy in order to place a left atrial line, tracheostomy and femoral artery line under general endotracheal anesthesia with halothane/oxygen three days before study. After three days of recovery the lambs underwent sterile placement of a 7 French thermal dilution pulmonary artery monitoring catheter under local anesthesia.
Awake unanesthetized lambs were studied in order to avoid general anesthesia which can blunt hypoxic vasoconstriction. Lambs were placed in a Babraham cage and allowed to drink and eat ad lib. Two studies were performed 2 days apart on each of six lambs. After the study the lambs were sacrificed with an overdose of barbiturate and heir lungs were fixed, stained and examined by light microscopy for pathological changes.
On the first study day lambs breathing 60-70% oxygen were given an infusion of a potent pulmonary vasoconstrictor, the stable endoperoxide analog (5Z, 9α, 13E, 15S)-11,9-(Epoxymethano)prosta-5,13-dien-1-oic acid (U46619, The Upjohn Company, Kalamazoo, Mich.) of thromboxane at a rate of 0.4-0.8 μg/kg/min. The tracheostomy was connected to a non-rebreathing circuit consisting of a 5 liter reservoir bag and one way valves to isolate inspired from expired gas. Expired gas was scavenged and discarded. The inspired gas was a precise mixture of oxygen and nitrogen immediately diluted with NO to produce the correct inspired concentration. Using volumetrically calibrated flowmeters, varying quantities of NO were mixed with N2 to obtain the desired inspired NO concentration at an inspired oxygen concentration (Fi O2) of 0.6-0.7. The reservoir bag was emptied after each level of NO inhalation. The residence half time of NO in the gas reservoir was 15 seconds or less to minimize conversion to NO2. NO was obtained from Air Products and Chemicals, Inc., Allentown, Pa. as a mixture of 235 ppm NO in pure N2. […] Fontijin, Anal. Chem. 27:1903 (1981).
Each level of NO exposure was followed by six minutes of breathing the oxygen mixture without NO (FIG. 2). A second exposure to NO was examined for similar periods. Subsequently, a control period breathing the oxygen mixture was studied six minutes after ceasing U46619 infusion. At each three and six minute time period after administering or discontinuing NO during the study, we measured mean and phasic pulmonary artery pressure (PAP), left atrial pressure (LAP), systemic arterial pressure (SAP) and central venous pressure (CVP). All pressures were recorded on a Hewlett Packard multi-channel strip chart recorder with transducers zeroed to atmospheric pressure at the mid point of the thorax (e.g., see FIG. 3). Cardiac output (CO) was measured by thermal dilution as the average of two determinations injecting 5 ml of 0° C. Ringers lactate. Pulmonary vascular resistance (PVR) and systemic vascular resistance (SVR) were computed by standard formulae; PVR measured at each inhaled NO concentration is shown in FIG. 4. Appropriate statistical analyses were performed, and all data were expressed as mean ± standard error.

[4] = test system: primary pulmonary hypertension; settings: cited from earlier work
[5] = regression vs NO concentration, eight lambs

With `[N]=O` [NO, nitric oxide] the methemoglobin levels ([1]; NO inhalation up to 28 days) was “No important increase of methemoglobin levels”, the PAP ([1]; during NO breathing) was “reduced PAP” and the “QVA /QT” value ([1]; during NO breathing) was “marked reductions of QVA /QT”. The survival ([1]; nine patients, up to 28 days) was “Seven survived”, the “decrease of mean PAP” value ([2]; 18 ppm NO in oxygen) was 12-14 mm Hg and the “mean PAP” value ([2]; 18 ppm NO in oxygen) was 38-42 mm Hg. The “reduction of PVR” value ([2]; 18 ppm NO in oxygen) was 44%, the wedge pressure ([2]; 18 ppm NO in oxygen, remaining constant) was roughly 15 mm Hg and the cardiac output ([2]; 18 ppm NO in oxygen, unchanged) was roughly 7 L/min. For the same molecule, the “QVA /QT” value ([2]; 18 ppm NO) was 26%, the “QVA /QT” value ([2]; 36 ppm NO) was 33% and the additional vasodilation ([2]; increasing NO concentration to 36 ppm) was 2-5 mm Hg. The “change of systemic arterial pressure” value ([2]; inhaled NO) was “no change of systemic arterial pressure”, the “PAP and RVEF” value ([2]; inhaled NO and i.v. PGI2, text) was “lowered PAP and improved RVEF” and the “PaO2, right-to-left shunt and VD /VT” value ([2]; inhaled NO, in contrast to PGI2) was “increased PaO2 and decreased right-to-left shunt and VD /VT”. The MAP ([2]; occasion #1, NO 18 ppm) was 78 mm Hg, the PAP ([2]; occasion #1, NO 18 ppm) was 42 mm Hg and the PCWP ([2]; occasion #1, NO 18 ppm) was 15 mm Hg. The PaO2 ([2]; occasion #1, NO 18 ppm) was 146 torr, the “QA /QT” value ([2]; occasion #1, NO 18 ppm) was 26% and the “VD /VT” value ([2]; occasion #1, NO 18 ppm) was 43%. The “low VD /Q” value ([2]; occasion #1, NO 18 ppm) was 1%, the MAP ([2]; occasion #1, NO 36 ppm) was 75 mm Hg and the PAP ([2]; occasion #1, NO 36 ppm) was 37 mm Hg. For the same molecule, the PCWP ([2]; occasion #1, NO 36 ppm) was 15 mm Hg, the PaO2 ([2]; occasion #1, NO 36 ppm) was 127 torr and the “QA /QT” value ([2]; occasion #1, NO 36 ppm) was 33%. The “VD /VT” value ([2]; occasion #1, NO 36 ppm) was 40%, the “low VD /Q” value ([2]; occasion #1, NO 36 ppm) was 0% and the MAP ([2]; occasion #2, NO 18 ppm) was 88 mm Hg. The PAP ([2]; occasion #2, NO 18 ppm) was 38 mm Hg, the PCWP ([2]; occasion #2, NO 18 ppm) was 14 mm Hg and the PaO2 ([2]; occasion #2, NO 18 ppm) was 127 torr. For the same molecule, the RVEF ([2]; occasion #2, NO 18 ppm) was 36%, the MAP ([2]; occasion #2, NO 36 ppm) was 86 mm Hg and the PAP ([2]; occasion #2, NO 36 ppm) was 36 mm Hg. The PCWP ([2]; occasion #2, NO 36 ppm) was 12 mm Hg, the PaO2 ([2]; occasion #2, NO 36 ppm) was 113 torr and the RVEF ([2]; occasion #2, NO 36 ppm) was 39%. For the same molecule, the PA pressure ([3]; 5 ppm NO (0.89 μg/kg/min)) was “significantly reduced the PA pressure”, the vasodilator response ([3]; 40 or 80 ppm NO) was “almost complete vasodilator response” and the PAP ([3]; 80 ppm NO for one hour, four lambs) was “pulmonary vasodilation to a normal PAP”. For the same molecule, the “time to nearly maximal vasodilator effect” value ([3]; FIG. 3) was “within three minutes”, the “pulmonary hypertension after NO inhalation” value ([3]; after 80 ppm NO for one hour, four lambs) was “pulmonary hypertension recurring after NO inhalation” and the “onset of pulmonary vasodilation” value ([3]; after beginning NO inhalation) was “within seconds”. For the same molecule, the “return to prior level of vasoconstriction after ceasing NO” value ([3]; after ceasing to inhale NO) was “within three to six minutes”, the “pulmonary vasoconstriction and pulmonary hypertension” value ([3]; all dose levels of NO (5-80 ppm)) was “prompt reduction of the pulmonary vasoconstriction and pulmonary hypertension” and the CO [3, 5] was “no significant change”. For the same molecule, the SVR [3, 5] was “no significant change”, the “mean SAP” value [3, 5] was “no significant change” and the “vasodilator response of second exposure” value ([3]; second exposure to 5, 10 and 20 ppm NO) was “no significant reduction from the prior series of exposures”. For the same molecule, the “PAP difference as percentage of ΔPAP” value ([4]; 40 ppm NO) was “about 6%”, the “difference in PAP versus air” value ([4]; 40 ppm NO) was 2.9 mm Hg and the “average PAP” value ([4]; breathing 40 ppm NO, seven patients, 59.6 mm Hg breathing air) was 56.7 mm Hg. The “average reduction in PVR” value ([4]; during inhalation of NO) was 9% and the “decrease in SAP” value ([4]; during inhalation of NO) was “No corresponding decrease in SAP”.
